Data taken from patent US11407737B2, “Inhibitors of RAF kinases” (Kinnate Biopharma Inc., priority 2020, dated 2022).
Counter-ions that a name gives are not always drawn.

Each molecule was assayed against human RAF1 (Homo sapiens (Human), UniProt P04049) (assay: Protein kinase assay (radiometric 33P-ATP, MEK1 (K97R) substrate), RAF-1). Conditions: human MEK1 (K97R) substrate 3 micromolar, ATP 10 micromolar; 10-dose, 3-fold serial dilution starting at 10 micromolar; read-out: RAF-1 IC50.
Assay type: biochemical
Protocol: Example 1: Kinase Assay Protocol
Assay platform was used to measure kinase/inhibitor interactions as described previously (Anastassiadis et al., 2011). In brief, for each reaction, kinase and substrate were mixed in a buffer containing 20 mM HEPES (pH 7.5), 10 mM MgCl2, 1 mM EGTA, 0.02% Brij35, 0.02 mg/mL BSA, 0.1 mM Na3VO4, 2 mM DTT, and 1% DMSO. All compounds were solubilized in DMSO. Compounds were then added to each reaction mixture via acoustic dispense using an ECHO 550 nanoliter dispenser. For human RAF1 testing, human MEK1 (K97R) was used as a substrate at a concentration of 3 micromolar, with a final ATP concentration of 10 micromolar. For human BRAF testing, human MEK1 (K97R) was used as a substrate at 1 micromolar concentration, with a final ATP concentration of 25 micromolar. […] After a 20-min incubation, ATP (Sigma-Aldrich, St. Louis, Mo. 63178) and [g33P] ATP (specific activity 10 microCi/microliter) purchased at PerkinElmer (Boston, Mass., 02118 Cat #BLU 003H250UC) were added at a final total concentration of […]. Reactions were carried out at room temperature for 2 hr and spotted onto P81 ion exchange cellulose chromatography paper (Reaction Biology). Filter paper was washed in 0.75% phosphoric acid to remove unincorporated ATP. The percent remaining kinase activity relative to a vehicle-containing (DMSO) kinase reaction was calculated for each kinase/inhibitor pair. IC50 values were calculated using Prism 5 (GraphPad).

human RAF1, sequence (P04049 whole entry): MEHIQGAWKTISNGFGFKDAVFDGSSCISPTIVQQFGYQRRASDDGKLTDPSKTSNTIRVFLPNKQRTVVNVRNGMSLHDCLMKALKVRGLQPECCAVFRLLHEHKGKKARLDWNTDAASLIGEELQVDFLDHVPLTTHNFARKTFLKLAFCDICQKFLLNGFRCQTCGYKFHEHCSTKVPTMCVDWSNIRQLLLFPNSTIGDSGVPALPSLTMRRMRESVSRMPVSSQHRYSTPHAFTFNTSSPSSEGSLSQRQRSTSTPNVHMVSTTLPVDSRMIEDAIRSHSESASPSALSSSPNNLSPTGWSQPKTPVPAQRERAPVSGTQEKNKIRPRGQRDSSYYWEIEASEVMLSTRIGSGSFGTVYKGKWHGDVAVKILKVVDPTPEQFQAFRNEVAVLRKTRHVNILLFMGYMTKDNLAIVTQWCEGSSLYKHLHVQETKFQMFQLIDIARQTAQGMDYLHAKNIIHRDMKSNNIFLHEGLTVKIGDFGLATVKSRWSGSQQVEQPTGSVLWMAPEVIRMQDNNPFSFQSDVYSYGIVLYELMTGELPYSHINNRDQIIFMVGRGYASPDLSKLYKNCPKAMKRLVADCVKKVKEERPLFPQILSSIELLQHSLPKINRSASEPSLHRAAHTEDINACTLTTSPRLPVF

Row | IC50 [nM] | Structure (SMILES)
1 | 10 to 100 | Cc1ccc(NC(=O)N2CC[C@@H](CC(F)(F)F)C2)cc1-c1cc(C2=CCN(C)CC2)nc(N2CCOCC2)c1 [Example 31, (3S)—N-[4-methyl-3-[1′-methyl-6-(morpholin-4-yl)-3′,6′-dihydro-2′H-[2,4′-bipyridin]-4-yl]phenyl]-3-(2,2,2-trifluoroethyl)pyrrolidine-1-carboxamide]
2 | < 1 | Cc1cc(F)c(NC(=O)N2CC[C@@H](C(F)(F)F)C2)cc1-c1cc(-c2cnn(C)c2)nc(N2CCOCC2)c1 [Example 75, (3R)—N-{2-fluoro-4-methyl-5-[2-(1-methylpyrazol-4-yl)-6-(morpholin-4-yl)pyridin-4-yl]phenyl}-3-(trifluoromethyl)pyrrolidine-1-carboxamide]
3 | 1 to 10 | Cc1ccc(NC(=O)N2CC[C@@H](CC(F)(F)F)C2)cc1-c1cc(-c2ccnc(O)c2)nc(N2CCOCC2)c1 [Example 30, (3S)—N-[3-[2-hydroxy-6-(morpholin-4-yl)-[2,4-bipyridin]-4-yl]-4-methylphenyl]-3-(2,2,2-trifluoroethyl)pyrrolidine-1-carboxamide]
4 | 1 to 10 | Cc1ccc(NC(=O)N2CC[C@@H](CC(F)(F)F)C2)cc1-c1cc(CO)nc(N2CCOCC2)c1 [Example 60, (3S)—N-[3-[2-(hydroxymethyl)-6-(morpholin-4-yl)pyridin-4-yl]-4-methylphenyl]-3-(2,2,2-trifluoroethyl)pyrrolidine-1-carboxamide]
5 | 1 to 10 | Cc1ccc(NC(=O)N2CC[C@@H](CC(F)(F)F)C2)cc1-c1cc(-c2cn(C)nn2)nc(N2CCOCC2)c1 [Example 14, (S)—N-(4-methyl-3-(2-(1-methyl-1H-1,2,3-triazol-4-yl)-6-morpholinopyridin-4-yl)phenyl)-3-(2,2,2-trifluoroethyl)pyrrolidine-1-carboxamide]
6 | 1 to 10 | Cc1ccc(NC(=O)N2CC[C@@H](CC(F)(F)F)C2)cc1-c1cc(C2CCN(C)CC2)nc(N2CCOCC2)c1 [Example 39, (S)—N-(4-methyl-3-(2-(1-methylpiperidin-4-yl)-6-morpholinopyridin-4-yl)phenyl)-3-(2,2,2-trifluoroethyl)pyrrolidine-1-carboxamide formate]
7 | 10 to 100 | Cc1ccc(NC(=O)N2CC[C@@H](CC(F)(F)F)C2)cc1-c1cc(N2CCOCC2)nc(C(C)(C)O)c1 [Example 27, (3S)—N-[3-[2-(2-hydroxypropan-2-yl)-6-(morpholin-4-yl)pyridin-4-yl]-4-methylphenyl]-3-(2,2,2-trifluoroethyl)pyrrolidine-1-carboxamide]
8 | 1 to 10 | Cc1ccc(NC(=O)N2CC[C@@H](CC(F)(F)F)C2)cc1-c1cc(C2=CCN(C)C2)nc(N2CCOCC2)c1 [Example 35, (3S)—N-[4-methyl-3-[2-(1-methyl-2,5-dihydropyrrol-3-yl)-6-(morpholin-4-yl)pyridin-4-yl]phenyl]-3-(2,2,2-trifluoroethyl)pyrrolidine-1-carboxamide]
9 | 1 to 10 | Cc1ccc(NC(=O)N2CC[C@@H](CC(F)(F)F)C2)cc1-c1cc(-c2c[nH]cn2)nc(N2CCOCC2)c1 [Example 53, (3S)—N-[3-[2-(1H-imidazol-4-yl)-6-(morpholin-4-yl)pyridin-4-yl]-4-methylphenyl]-3-(2,2,2-trifluoroethyl)pyrrolidine-1-carboxamide]
10 | 1 to 10 | Cc1cc(F)c(NC(=O)N2CC[C@H](C(F)(F)C(F)(F)F)C2)cc1-c1cc(-c2cnn(C)c2)nc(N2CCOCC2)c1 (single isomer, unassigned) [Example 81]
11 | < 1 | Cc1ccc(NC(=O)N2CC[C@@H](CC(F)(F)F)C2)cc1-c1cc(CCCO)nc(N2CCOCC2)c1 [Example 24, (3S)—N-[3-[2-(3-hydroxypropyl)-6-(morpholin-4-yl)pyridin-4-yl]-4-methylphenyl]-3-(2,2,2-trifluoroethyl)pyrrolidine-1-carboxamide]

Further lines, the molecule ahead of its results:

Row | Structure (SMILES) | IC50 [nM]
12 | Cc1cc(F)c(NC(=O)N2CC=C(C(F)(F)F)C2)cc1-c1cc(-c2cnn(C)c2)nc(N2CCOCC2)c1 [Example 69, N-{2-fluoro-4-methyl-5-[2-(1-methylpyrazol-4-yl)-6-(morpholin-4-yl)pyridin-4-yl]phenyl}-3-(trifluoromethyl)-2,5-dihydropyrrole-1-carboxamide] | < 1
13 | Cc1cc(F)c(NC(=O)N2CC=C(C(F)(F)F)C2)cc1-c1cc(-c2ccnn2C)nc(N2CCOCC2)c1 [Example 73, N-{2-fluoro-4-methyl-5-[2-(2-methylpyrazol-3-yl)-6-(morpholin-4-yl)pyridin-4-yl]phenyl}-3-(trifluoromethyl)-2,5-dihydropyrrole-1-carboxamide] | < 1
14 | Cc1ccc(NC(=O)N2CC[C@@H](CC(F)(F)F)C2)cc1-c1cc(C2CCN(C)C2)nc(N2CCOCC2)c1 (stereo partly drawn) [Example 38, (3S)—N-(4-methyl-3-(2-(1-methylpyrrolidin-3-yl)-6-morpholinopyridin-4-yl)phenyl)-3-(2,2,2-trifluoroethyl)pyrrolidine-1-carboxamide formate] | 1 to 10
15 | Cc1ccc(NC(=O)N2CC[C@@H](CC(F)(F)F)C2)cc1-c1cc(-c2nncn2C)nc(N2CCOCC2)c1 [Example 61, (3S)—N-{4-methyl-3-[2-(4-methyl-1,2,4-triazol-3-yl)-6-(morpholin-4-yl)pyridin-4-yl]phenyl}-3-(2,2,2-trifluoroethyl)pyrrolidine-1-carboxamide] | 1 to 10
16 | Cc1ccc(NC(=O)N2CC[C@@H](CC(F)(F)F)C2)cc1-c1cc(C(=O)N[C@H](C)CO)nc(N2CCOCC2)c1 [Example 6, N-[(2R)-1-hydroxypropan-2-yl]-4-[2-methyl-5-[(3S)-3-(2,2,2-trifluoroethyl)pyrrolidine-1-carbonylamino]phenyl]-6-(morpholin-4-yl)pyridine-2-carboxamide] | 1 to 10
17 | Cc1ccc(NC(=O)N2CC[C@@H](OC(F)(F)F)C2)cc1-c1cc(-c2cnn(C)c2)nc(N2CCOCC2)c1 [Example 64, (3R)—N-{4-methyl-3-[2-(1-methylpyrazol-4-yl)-6-(morpholin-4-yl)pyridin-4-yl]phenyl}-3-(trifluoromethoxy)pyrrolidine-1-carboxamide] | 1 to 10
18 | Cc1ccc(NC(=O)N2CC[C@@H](CC(F)(F)F)C2)cc1-c1cc(-c2cncn2C)nc(N2CCOCC2)c1 [Example 16, (3S)—N-[4-methyl-3-[2-(3-methylimidazol-4-yl)-6-(morpholin-4-yl)pyridin-4-yl]phenyl]-3-(2,2,2-trifluoroethyl)pyrrolidine-1-carboxamide] | 1 to 10
19 | Cc1ccc(NC(=O)N2CC[C@@H](CC(F)(F)F)C2)cc1-c1cc(C#C[C@@H](C)O)nc(N2CCOCC2)c1 [Example 11, (3S)—N-(3-[2-[(3R)-3-hydroxybut-1-yn-1-yl]-6-(morpholin-4-yl)pyridin-4-yl]-4-methylphenyl)-3-(2,2,2-trifluoroethyl)pyrrolidine-1-carboxamide] | 1 to 10
20 | Cc1ccc(NC(=O)N2CC[C@@H](CC(F)(F)F)C2)cc1-c1cc(-c2c(C)n[nH]c2C)nc(N2CCOCC2)c1 [Example 51, (3S)—N-[3-[2-(3,5-dimethyl-1H-pyrazol-4-yl)-6-(morpholin-4-yl)pyridin-4-yl]-4-methylphenyl]-3-(2,2,2-trifluoroethyl)pyrrolidine-1-carboxamide] | 1 to 10
21 | Cc1ccc(NC(=O)N2CC[C@@H](CC(F)(F)F)C2)cc1-c1cc(-c2cn(C)cn2)nc(N2CCOCC2)c1 [Example 54, (3S)—N-{4-methyl-3-[2-(1-methylimidazol-4-yl)-6-(morpholin-4-yl)pyridin-4-yl]phenyl}-3-(2,2,2-trifluoroethyl)pyrrolidine-1-carboxamide] | 1 to 10
22 | Cc1ccc(NC(=O)N2CCO[C@H](C(F)(F)F)C2)cc1-c1cc(-c2cnn(C)c2)nc(N2CCOCC2)c1 [Example 62, (2S)—N-{4-methyl-3-[2-(1-methylpyrazol-4-yl)-6-(morpholin-4-yl)pyridin-4-yl]phenyl}-2-(trifluoromethyl)morpholine-4-carboxamide] | 1 to 10
23 | Cc1ccc(NC(=O)N2CCO[C@@H](C(F)(F)F)C2)cc1-c1cc(-c2ccnn2C)nc(N2CCOCC2)c1 [Example 65, (2R)—N-{4-methyl-3-[2-(2-methylpyrazol-3-yl)-6-(morpholin-4-yl)pyridin-4-yl]phenyl}-2-(trifluoromethyl)morpholine-4-carboxamide] | < 1
24 | Cc1ccc(NC(=O)N2CC[C@@H](CC(F)(F)F)C2)cc1-c1cc(C2CCCN(C)C2)nc(N2CCOCC2)c1 (stereo partly drawn) [Example 29, (3S)—N-[4-methyl-3-[2-(1-methylpiperidin-3-yl)-6-(morpholin-4-yl)pyridin-4-yl]phenyl]-3-(2,2,2-trifluoroethyl)pyrrolidine-1-carboxamide] | 1 to 10
25 | Cc1ccc(NC(=O)N2CC[C@@H](CC(F)(F)F)C2)cc1-c1cc(C(N)=O)nc(N2CCOCC2)c1 [Example 2, 4-[2-methyl-5-[(3S)-3-(2,2,2-trifluoroethyl)pyrrolidine-1-carbonylamino]phenyl]-6-(morpholin-4-yl)pyridine-2-carboxamide] | 1 to 10
26 | Cc1ccc(NC(=O)N2CC[C@@H](CC(F)(F)F)C2)cc1-c1cc(-c2cn[nH]c2)nc(N2CCOCC2)c1 [Example 33, (3S)—N-[4-methyl-3-[2-(morpholin-4-yl)-6-(1H-pyrazol-4-yl)pyridin-4-yl]phenyl]-3-(2,2,2-trifluoroethyl)pyrrolidine-1-carboxamide] | < 1
